Test results published in BindingDB's records for doi:10.1002/cbic.201402650 (Goethe Universität Frankfurt, 2015).

molecular target: T1, Juvenile hormone epoxide hydrolase (Manduca sexta, UniProt Q25489); test: Quantitative Reverse Transcriptase Assay
T1 sequence (Q25489 whole entry): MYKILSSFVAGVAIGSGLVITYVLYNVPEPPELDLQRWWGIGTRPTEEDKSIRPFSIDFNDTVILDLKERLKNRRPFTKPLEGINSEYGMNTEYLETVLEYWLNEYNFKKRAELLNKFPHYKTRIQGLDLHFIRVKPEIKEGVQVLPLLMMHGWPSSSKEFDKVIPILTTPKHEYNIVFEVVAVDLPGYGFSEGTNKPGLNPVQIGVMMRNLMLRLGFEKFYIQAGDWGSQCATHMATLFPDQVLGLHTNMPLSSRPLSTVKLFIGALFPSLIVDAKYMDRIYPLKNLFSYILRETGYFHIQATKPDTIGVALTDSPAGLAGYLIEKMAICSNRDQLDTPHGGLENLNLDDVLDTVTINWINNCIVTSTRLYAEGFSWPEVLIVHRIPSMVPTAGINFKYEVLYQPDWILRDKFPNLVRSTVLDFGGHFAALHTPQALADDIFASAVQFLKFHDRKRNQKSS
Description: We used quantitative reverse-transcriptase PCR to measure the RNA levels of certain AMP genes (lysozyme, gallerimycin, moricin and cecropin) in caterpillars of M. sexta and the greater waxmoth G. mellonella challenged with Serratia entomophila or Salmonella enterica, respectively, following injection of different urea lipid compounds.

SMILES	IC50 [µM]
CC(C)CCCCCCCCNC(N)=O [N-(9-Methyldecyl) urea (2)]	> 100
CC(C)CCCCCCCCCCNC(N)=O [N-(11-Methyldodecyl) urea (5)]	> 100
CCCCCCCCCCCCNC(N)=O [N-Dodecyl urea (6)]	> 100
CNC(=O)NCCCCCCCCC(C)C [N-Methyl-N -(9-methyldecyl) urea (1)]	6.5
CNC(=O)NCCCCCCCCCCC(C)C [N-Methyl-N -(11-methyldodecyl) urea (3)]	30
CCCCCCCCCCCCNC(=O)NC [N-Methyl-N -dodecyl urea (4)]	10.7
CCCCCCCCCNC(=O)NC [N-Methyl-N -nonyl urea (11)]	> 100
CCCCCCCCCCCCCNC(=O)NC [N-Methyl-N -tridecyl urea (9)]	10
CCCCCCCCCCCCCNC(N)=O [N-Tridecyl urea (10)]	> 100
CCCCCCCCCCCNC(=O)NC [N-methyl-N -undecyl urea (7)]	4.3
CCCCCCCCCNC(N)=O [N-nonyl urea (12)]	> 100
CCCCCCCCCCCCNC(=O)NCC(C)C [US8815951, 478]	2.3
